Experimental data as given in ChEMBL document CHEMBL3259522, “Synthesis and biological evaluation of some 2-(3,5-dimethyl-1H-pyrazol-1-yl)-1-arylethanones: antibacterial, DNA photocleavage, and anticancer activities” (2014).
≈ marks a conversion by molar mass, not a printed value. Calls of active or inactive are those of the source. No cut-off for these calls is given here.

Assays:
[1] = system: HCT-116; assay: Anticancer activity against human HCT116 cells assessed as cell viability at 50 uM after 48 hrs by MTT assay; format: functional; settings: HCT-116, 48 h, read-out: Activity
[2] = Induction of DNA degradation in supercoiled plasmid DNA (unknown origin) by agarose gel electrophoresis in absence of UV light
[3] = system: Enterococcus; assay: Antibacterial activity against Enterococcus assessed as diameter of growth inhibition zone after 24 hrs by two fold serial dilution method; format: functional
[4] = system: Escherichia coli; assay: Antibacterial activity against Escherichia coli assessed as growth inhibition after 24 hrs by two fold serial dilution method; format: functional
[5] = system: HT-29; assay: Anticancer activity against human HT-29 cells assessed as cell viability at 50 uM after 72 hrs by MTT assay; format: functional, cell-based
[6] = system: Staphylococcus aureus; assay: Antibacterial activity against Staphylococcus aureus assessed as diameter of growth inhibition zone after 24 hrs by two fold serial dilution method; format: functional
[7] = system: Staphylococcus aureus; assay: Antibacterial activity against Staphylococcus aureus assessed as growth inhibition after 24 hrs by two fold serial dilution method; format: functional
[8] = system: Escherichia coli; assay: Antibacterial activity against Escherichia coli assessed as growth inhibition after 24 hrs by two fold serial dilution method relative to ampicillin; format: functional; design: scale not given: the % may be the effect or the level left
[9] = system: HCT-116; assay: Anticancer activity against human HCT116 cells assessed as cell viability at 25 uM after 48 hrs by MTT assay; format: functional; settings: HCT-116, 48 h, read-out: Activity
[10] = system: HCT-116; assay: Anticancer activity against human HCT116 cells assessed as cell viability at 10 uM after 48 hrs by MTT assay; format: functional; settings: HCT-116, 48 h, read-out: Activity
[11] = system: SK-OV-3; assay: Anticancer activity against human SKOV3 cells assessed as cell viability after 72 hrs by MTT assay; format: functional, cell-based
[12] = system: Escherichia coli; assay: Antibacterial activity against Escherichia coli assessed as diameter of growth inhibition zone after 24 hrs by two fold serial dilution method; format: functional
[13] = system: Pseudomonas aeruginosa; assay: Antibacterial activity against Pseudomonas aeruginosa assessed as growth inhibition after 24 hrs by two fold serial dilution method; format: functional
[14] = system: DU-145; assay: Anticancer activity against human DU145 cells assessed as cell viability at 50 uM after 72 hrs by MTT assay; format: functional, cell-based
[15] = system: Klebsiella pneumoniae; assay: Antibacterial activity against Klebsiella pneumoniae assessed as growth inhibition after 24 hrs by two fold serial dilution method; format: functional
[16] = Induction of DNA degradation in open circular plasmid DNA (unknown origin) by agarose gel electrophoresis in absence of UV light
[17] = system: Pseudomonas aeruginosa; assay: Antibacterial activity against Pseudomonas aeruginosa assessed as growth inhibition after 24 hrs by two fold serial dilution method relative to ampicillin; format: functional; design: scale not given: the % may be the effect or the level left
[18] = system: Klebsiella pneumoniae; assay: Antibacterial activity against Klebsiella pneumoniae assessed as diameter of growth inhibition zone after 24 hrs by two fold serial dilution method; format: functional
[19] = system: Enterococcus; assay: Antibacterial activity against Enterococcus assessed as growth inhibition after 24 hrs by two fold serial dilution method; format: functional
[20] = system: Pseudomonas aeruginosa; assay: Antibacterial activity against Pseudomonas aeruginosa assessed as diameter of growth inhibition zone after 24 hrs by two fold serial dilution method; format: functional
[21] = Induction of DNA photocleavage in open circular plasmid DNA (unknown origin) at 30 ug by agarose gel electrophoresis in presence of UV light
[22] = Induction of DNA photocleavage in open circular plasmid DNA (unknown origin) at 15 ug by agarose gel electrophoresis in presence of UV light
[23] = Induction of DNA photocleavage in open circular plasmid DNA (unknown origin) at 60 ug by agarose gel electrophoresis in presence of UV light
[24] = Induction of DNA photocleavage in supercoiled plasmid DNA (unknown origin) at 30 ug by agarose gel electrophoresis in presence of UV light
[25] = Induction of DNA photocleavage in supercoiled plasmid DNA (unknown origin) at 60 ug by agarose gel electrophoresis in presence of UV light
[26] = system: HCT-116; assay: Anticancer activity against human HCT116 cells assessed as cell viability after 48 hrs by MTT assay; format: functional, cell-based
[27] = Induction of DNA photocleavage in supercoiled plasmid DNA (unknown origin) at 15 ug by agarose gel electrophoresis in presence of UV light
[28] = Induction of DNA photocleavage in open circular plasmid DNA (unknown origin) at 2.5 ug by agarose gel electrophoresis in presence of UV light
[29] = Induction of DNA photocleavage in open circular plasmid DNA (unknown origin) at 1 ug by agarose gel electrophoresis in presence of UV light
[30] = Induction of DNA photocleavage in supercoiled plasmid DNA (unknown origin) at 5 ug by agarose gel electrophoresis in presence of UV light
[31] = system: Staphylococcus aureus; assay: Antibacterial activity against Staphylococcus aureus assessed as growth inhibition after 24 hrs by two fold serial dilution method relative to ampicillin; format: functional; design: scale not given: the % may be the effect or the level left
[32] = Induction of DNA photocleavage in supercoiled plasmid DNA (unknown origin) at 1 ug by agarose gel electrophoresis in presence of UV light
[33] = Induction of DNA photocleavage in open circular plasmid DNA (unknown origin) at 5 ug by agarose gel electrophoresis in presence of UV light
[34] = Induction of DNA photocleavage in supercoiled plasmid DNA (unknown origin) at 2.5 ug by agarose gel electrophoresis in presence of UV light
[35] = system: A549; assay: Anticancer activity against human A549 cells assessed as cell viability after 72 hrs by MTT assay; format: functional, cell-based
[36] = system: Enterococcus; assay: Antibacterial activity against Enterococcus assessed as growth inhibition after 24 hrs by two fold serial dilution method relative to ampicillin; format: functional; design: scale not given: the % may be the effect or the level left
[37] = system: HT-29; assay: Anticancer activity against human HT-29 cells assessed as cell viability after 72 hrs by MTT assay; format: functional, cell-based
[38] = system: DU-145; assay: Anticancer activity against human DU145 cells assessed as cell viability after 72 hrs by MTT assay; format: functional, cell-based
[39] = system: HCT-116; assay: Anticancer activity against human HCT116 cells assessed as cell viability after 72 hrs by MTT assay; format: functional, cell-based

## Cc1cc(C)n(CC(=O)c2ccccc2)n1
[1]
  viability at 50 µM: 52.4%
[2]
  Activity: inactive
[3]
  diameter of the inhibition zone (DIZ): 13 mm
[4]
  MIC: 512 µg/mL (≈ 2390 µM)
[5]
  Activity: inactive
[6]
  diameter of the inhibition zone (DIZ): 10 mm
[7]
  MIC: 512 µg/mL (≈ 2390 µM)
[8]
  Activity: 12.5%
[9]
  viability at 25 µM: 55.4%
[10]
  viability at 10 µM: 81.4%
[11]
  Activity: inactive
[12]
  diameter of the inhibition zone (DIZ): 11 mm
[13]
  MIC: 64 µg/mL (≈ 299 µM)
[14]
  Activity: inactive
[15]
  MIC: 64 µg/mL (≈ 299 µM)
[16]
  Activity: inactive
[17]
  Activity: 12.5%
[18]
  diameter of the inhibition zone (DIZ): 10 mm
[19]
  MIC: 512 µg/mL (≈ 2390 µM)
[20]
  diameter of the inhibition zone (DIZ): 13 mm

## Cc1cc(C)n(CC(=O)c2ccc(F)cc2)n1
[21]
  Activity: Active
[2]
  Activity: inactive
[3]
  diameter of the inhibition zone (DIZ): 15 mm
[4]
  MIC: 64 µg/mL (≈ 276 µM)
[6]
  diameter of the inhibition zone (DIZ): 11 mm
[7]
  MIC: 256 µg/mL (≈ 1100 µM)
[22]
  Activity: Active
[8]
  Activity: 12.5%
[23]
  Activity: Active
[24]
  Activity: Active
[25]
  Activity: Active
[12]
  diameter of the inhibition zone (DIZ): 15 mm
[13]
  MIC: 256 µg/mL (≈ 1100 µM)
[15]
  MIC: 256 µg/mL (≈ 1100 µM)
[16]
  Activity: inactive
[26]
  Activity: inactive
[27]
  Activity: Active
[17]
  Activity: 12.5%
[18]
  diameter of the inhibition zone (DIZ): 9 mm
[19]
  MIC: 64 µg/mL (≈ 276 µM)
[20]
  diameter of the inhibition zone (DIZ): 11 mm

## Cc1cc(C)n(CC(=O)c2ccc(Br)cc2)n1
[1]
  viability at 50 µM: 47.4%
[21]
  Activity: Active
[2]
  Activity: inactive
[28]
  Activity: Active
[3]
  diameter of the inhibition zone (DIZ): 12 mm
[4]
  MIC: 256 µg/mL (≈ 873 µM)
[5]
  Activity: inactive
[6]
  diameter of the inhibition zone (DIZ): 14 mm
[7]
  MIC: 32 µg/mL (≈ 109 µM)
[22]
  Activity: Active
[9]
  viability at 25 µM: 55.9%
[23]
  Activity: Active
[24]
  Activity: Active
[25]
  Activity: Active
[10]
  viability at 10 µM: 62.4%
[29]
  Activity: Active
[11]
  Activity: inactive
[12]
  diameter of the inhibition zone (DIZ): 14 mm
[14]
  Activity: inactive
[16]
  Activity: inactive
[30]
  Activity: Active
[31]
  Activity: 6.25%
[32]
  Activity: Active
[33]
  Activity: Active
[27]
  Activity: Active
[34]
  Activity: Active
[19]
  MIC: 512 µg/mL (≈ 1750 µM)

## Cc1cc(C)n(CC(=O)c2cccc3ccccc23)n1
[1]
  viability at 50 µM: 34.6%
[2]
  Activity: inactive
[3]
  diameter of the inhibition zone (DIZ): 12 mm
[5]
  Activity: inactive
[9]
  viability at 25 µM: 60.8%
[23]
  Activity: Active
[25]
  Activity: Active
[10]
  viability at 10 µM: 73.4%
[11]
  Activity: inactive
[14]
  Activity: inactive
[16]
  Activity: inactive
[35]
  Activity: Active
[19]
  MIC: 256 µg/mL (≈ 968 µM)

## Cc1cc(C)n(CC(=O)c2ccc(F)cc2F)n1
[21]
  Activity: Active
[2]
  Activity: inactive
[28]
  Activity: inactive
[3]
  diameter of the inhibition zone (DIZ): 10 mm
[4]
  MIC: 512 µg/mL (≈ 2050 µM)
[6]
  diameter of the inhibition zone (DIZ): 10 mm
[7]
  MIC: 256 µg/mL (≈ 1020 µM)
[22]
  Activity: inactive
[23]
  Activity: Active
[24]
  Activity: Active
[25]
  Activity: Active
[29]
  Activity: inactive
[12]
  diameter of the inhibition zone (DIZ): 9 mm
[16]
  Activity: inactive
[30]
  Activity: inactive
[26]
  Activity: inactive
[32]
  Activity: inactive
[33]
  Activity: inactive
[27]
  Activity: inactive
[34]
  Activity: inactive
[19]
  MIC: 512 µg/mL (≈ 2050 µM)

## Cc1cc(C)n(CC(=O)c2ccc([N+](=O)[O-])cc2)n1
[21]
  Activity: Active
[2]
  Activity: inactive
[28]
  Activity: Active
[3]
  diameter of the inhibition zone (DIZ): 14 mm
[4]
  MIC: 256 µg/mL (≈ 987 µM)
[6]
  diameter of the inhibition zone (DIZ): 13 mm
[7]
  MIC: 128 µg/mL (≈ 494 µM)
[22]
  Activity: Active
[23]
  Activity: Active
[24]
  Activity: Active
[25]
  Activity: Active
[29]
  Activity: Active
[12]
  diameter of the inhibition zone (DIZ): 11 mm
[16]
  Activity: inactive
[30]
  Activity: Active
[26]
  Activity: inactive
[32]
  Activity: Active
[33]
  Activity: Active
[27]
  Activity: Active
[34]
  Activity: Active
[19]
  MIC: 256 µg/mL (≈ 987 µM)

## Cc1cc(C)n(CC(=O)c2ccc3ccccc3c2)n1
[36]
  Activity: 12.5%
[1]
  viability at 50 µM: 36.5%
[2]
  Activity: inactive
[3]
  diameter of the inhibition zone (DIZ): 15 mm
[4]
  MIC: 16 µg/mL (≈ 60.5 µM)
[6]
  diameter of the inhibition zone (DIZ): 10 mm
[37]
  Activity: Active
[7]
  MIC: 8 µg/mL (≈ 30.3 µM)
[38]
  Activity: Active
[8]
  Activity: 50%
[9]
  viability at 25 µM: 52.6%
[10]
  viability at 10 µM: 56.8%
[11]
  Activity: inactive
[12]
  diameter of the inhibition zone (DIZ): 12 mm
[13]
  MIC: 64 µg/mL (≈ 242 µM)
[15]
  MIC: 64 µg/mL (≈ 242 µM)
[16]
  Activity: inactive
[35]
  Activity: Active
[39]
  Activity: Active
[31]
  Activity: 25%
[17]
  Activity: 12.5%
[18]
  diameter of the inhibition zone (DIZ): 11 mm
[19]
  MIC: 16 µg/mL (≈ 60.5 µM)
[20]
  diameter of the inhibition zone (DIZ): 14 mm
